Reference: US20030130287A1, “Piperidine and piperazine derivatives which function as 5-ht2a receptor antagonists” (priority 2000, published 2003)
Counter-ions that a name gives are not always drawn.

Experiments:
[1] = biological target: T1, 5-HT2A receptors (Rattus norvegicus, UniProt P14842); test: [3H]ketanserine displacement at 5-HT2A receptors (Example A1); type: binding; conditions: frontal rat cortex homogenate, 15 minutes at 37° C.
T1 construct: Frontal rat cortex is homogenized in ice-cold buffer; from tissue; host or cells: rat frontal cortex homogenate (membrane pellet)
T1 sequence (P14842 whole entry): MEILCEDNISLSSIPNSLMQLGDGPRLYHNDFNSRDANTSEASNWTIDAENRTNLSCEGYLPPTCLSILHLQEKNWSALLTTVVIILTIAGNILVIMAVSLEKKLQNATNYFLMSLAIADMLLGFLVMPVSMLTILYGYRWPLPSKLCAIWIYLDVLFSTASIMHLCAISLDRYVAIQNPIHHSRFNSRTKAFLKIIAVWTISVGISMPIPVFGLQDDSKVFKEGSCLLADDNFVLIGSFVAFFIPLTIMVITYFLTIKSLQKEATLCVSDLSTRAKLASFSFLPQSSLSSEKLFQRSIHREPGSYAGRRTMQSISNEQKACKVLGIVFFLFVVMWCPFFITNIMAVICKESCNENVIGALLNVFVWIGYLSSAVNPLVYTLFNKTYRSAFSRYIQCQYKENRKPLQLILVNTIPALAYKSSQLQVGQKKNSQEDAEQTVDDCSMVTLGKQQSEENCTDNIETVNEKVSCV
Method: For the in-vitro detection of affinity to 5-HT2A receptors, the following test (Example A1), for example, can be used. The 5-HT2A receptors are exposed both to [^3H]ketanserine (a substance which is known for its affinity to the receptor) and also to the test compound. The decrease in the affinity of [^3H]ketanserine to the receptor is an indication of the affinity of the test substance to the 5-HT2A receptor. The detection is carried out analogously to the description by J. E. Leysen et al., Molecular Pharmacology, 1982, 21: 301-314, or as also described, for example, in EP 0320983.
Preparation of a Suspension of 5-HT2A Receptors:
Frontal rat cortex is homogenized in ice-cold buffer. The homogenate is centrifuged for 10 minutes at 4° C. and 50,000 X. The pellet is re-suspended in 2.5 ml of ice-cold tris buffer, made up to 10 ml with additional buffer and centrifuged as described. The pellet is then re-suspended in buffer and diluted to give a homogenate comprising 60 mg of material/ml. 0.1 ml of the suspension, 100 μl of a 5 nM solution of [^3H]ketanserine and 100 μl of a solution of the test compound (concentration in the range from 10^−5 to 10^−10 mol per litre) are introduced into the incubation tubes and made up to 1 ml with buffer. The tubes are incubated for 15 minutes at 37° C. After the incubation has been terminated by dipping the tubes into an ice bath, the cooled suspension is filtered through a glass filter under reduced pressure. The filters are washed 3× with 5 ml of cold buffer and then transferred into scintillation tubes. The filters are analysed by liquid scintillation spectrometry in 8 ml of Triton-X scintillator liquid.

Row | Structure (SMILES) | IC50 [1] [nM] | melting point [°C]
1 | CC(=O)Nc1cccc2c(S(=O)(=O)N3CCN(CCc4ccc(F)cc4)CC3)cccc12 [compound 4, 4-(5-Acetamidonaphth-1-yl-sulfonyl)-1-[2-(4-fluorophenyl)ethyl]piperazine] | 7.4 | 
2 | O=S(=O)(c1cccc(Cl)n1)C1CCN(CCc2ccc(F)cc2)CC1 [compound 10, 2-Chloro-6-{1-[2-(4-fluorophenyl)ethyl]piperidin-4-sulfonyl}pyridine] | 0.6 | 
3 | N#Cc1c[nH]c2ccc(S(=O)(=O)N3CCN(CCc4ccc(F)cc4)CC3)cc12 [compound 8, 4-(3-Cyano-1H-indole-5-sulfonyl)-1-[2-(4-fluorophenyl)ethyl]piperazine] | 1.6 | 
4 | O=S(=O)(c1cccc2nonc12)N1CCN(CCc2ccc(F)cc2)CC1 [compound 5, 4-(2,1,3-Benzoxadiazol-4-ylsulfonyl)-1-[2-(4-fluorophenyl)ethyl]piperazine] | 44 | 
5 | [O-][S+](c1cccc(Cl)n1)C1CCN(CCc2ccc(F)cc2)CC1 (stereo not shown) (as salt: hydrochloride) [Example 3, 2-chloro-6-{1-[2-(4-fluorophenyl)ethyl]piperidine-4-sulfinyl}pyridine] |  | 208

Other lines, results leading:

Row | IC50 [1] [nM] | melting point [°C] | Structure (SMILES)
6 | 2.1 |  | O=S(=O)(c1ccc(F)cc1)C1CCN(CCc2ccc(F)cc2)CC1 [compound 9, 4-(4-Fluorophenylsulfonyl)-1-(2-(4-fluorophenyl)ethyl]piperidine]
7 | 13 |  | O=S(=O)(c1ccc2c(c1)CCN2)N1CCN(CCc2ccc(F)cc2)CC1 [compound 7, 4-(2,3-Dihydro-1H-indole-5-sulfonyl)-1-[2-(4-fluorophenyl)ethyl]piperazine]
8 | 9.2 |  | O=[N+]([O-])c1ccccc1S(=O)(=O)N1CCN(CCc2ccc(F)cc2)CC1 [compound 6, 4-(2-Nitrophenylsulfonyl)-1-[2-(4-fluorophenyl)ethyl]piperazine]
9 | 8.1 |  | O=S(=O)(c1cccc2ccccc12)N1CCN(CCc2ccc(F)cc2)CC1 [compound 2, 4-(1-Naphthylsulfonyl)-1-[2-(4-fluorophenyl)ethyl]piperazine]
10 |  | 237 to 240 | Fc1ccc(CCN2CCC(Sc3cccc(Cl)n3)CC2)cc1 (as salt: hydrochloride) [Example 2, 2-chloro-6-{1-[2-(4-fluorophenyl)ethyl]piperidin-4-ylsulfanyl}pyridine]
11 | 25 |  | O=S(=O)(c1ccc(F)cc1)N1CCN(CCc2ccc(F)cc2)CC1 [compound 3, 4-(4-Fluorophenylsulfonyl)-1-[2-(4-fluorophenyl)ethyl]piperazine]
12 | 1.3 |  | O=S(=O)(c1cccc2cccnc12)N1CCN(CCc2ccc(F)cc2)CC1 [compound 1, 4-(8-Quinolinesulfonyl)-1-[2-(4-fluorophenyl)ethyl]piperazine]
13 |  | 141 | O=S(=O)(c1cccc2cccnc12)N1CCN(CCc2ccc(F)cc2)CC1 (as salt: hydrochloride) [compound 1, 4-(8-Quinolinesulfonyl)-1-[2-(4-fluorophenyl)ethyl]piperazine]
